Measurements: patent US20230406853A1, “COVALENT CDK2-BINDING COMPOUNDS FOR THERAPEUTIC PURPOSES” (Umbra Therapeutics, Inc., priority 2021, published 2023)

Target: CycE1-CDK2 (Homo sapiens, UniProt P24941)
Assay: Cdk2 Enzymatic TR-FRET Assay
Format: biochemical
Details: CDK2/CycE 5 nM, ATP 100 μM, 60 minutes pre-incubation with compound; read-out: CDK2 Kinase
Excerpt: A TR-FRET system was used to detect CycE1-CDK2 kinase activity. The assay used a Europium-labeled anti-phospho-Ser/Thr antibody and ULight™-labeled peptide substrate (eIF4E-binding protein 1). When CycE1-CDK2 phosphorylates the peptide the phosphorylated Thr is recognized by the Europium-labeled anti-phospho-Ser/Thr antibody. Upon excitation of the Europium donor fluorophore at 337 nm, energy is transferred to the ULight™ acceptor dye on the substrate, resulting in the emission of light at 665 nm. The fluorescent signal is proportional to the level of ULight™ peptide phosphorylation and to the kinase activity.
The stock solution was prepared as follows: • 1× Reaction buffer: 50 mM HEPES pH 7.5, 10 mM MgCl2, 0.5 mM TCEP, 0.01% Tween®20, 1 mM EGTA, 0.001% fatty acid free (faf)-BSA; • 1× Detection buffer: equilibrate the Detection buffer at RT for at least 20 minutes then dilute 10-fold the stock in water; • 4×ENZYME mix: CDK2/CycE enzyme (5 nM final concentration in kinase reaction) in 1× Reaction buffer; • 4×SUBSTRATE mix: 4E-BP substrate (50 nM final concentration in kinase reaction)+ATP (100 μM final concentration in kinase reaction) in 1× Reaction buffer • 2×STOP/DETECTION mix: EDTA (10 mM final concentration in assay)+Anti-Phosphate antibody (0.5 nM final concentration in assay) in 1× Detection buffer • Neutral Control: Assay with no inhibition (MAX activity) • Inhibitor Control: Assay with IC100 (1 mM) reference inhibitor JNJ7706621 (MIN activity)
The assay was assembled directly in a white, small volume, Proxiplate (PerkinElmer) as follows: • Step 1: Charge compounds=5 μL/well • Step 2: Charge kinase=2.5 μL/well→total volume 7.5 μL/well • The plate is sealed and incubated at room temperature for 60 minutes • Step 3: Substrate mix (substrate/ATP)=2.5 μL/well→total enzymatic reaction volume 10 μL/well • The plate is sealed and incubated at room temperature for 60 minutes • Step 4: Stop/Detection mix (EDTA/antibody)=10 μL/well→total volume 20 μL/well • The plate is sealed and incubated at room temperature for at least 2 hours and fluorescence signal is measured at PHERAstar FSX The reading conditions are the followings for PHERAstar FSX:
A 384-microtiter plate (MTP), containing 20 test compounds in eight-points dose response, is prepared. Test compounds dose response curves are prepared in automation in 100% DMSO in a CyBio Felix, starting from a DMSO stock solution of 10 mM. To obtain the eight-points dose-response curve, a serial dilution protocol in 100% DMSO is performed for each compound by using a 96 MTP as a support. 20 μL of the 10 mM stock solutions are transferred in row A of a 96 MTP U-bottom from column 2 to 11 for a total of 10 compounds/plate. Starting from the 10 mM stock, serial dilutions across rows, from A to B and proceeding up to H, are performed for each compound by transferring 6.3 μL of the more concentrated fluid in 13.7 μL of 100% DMSO.
In order to generate duplicate data points each well of the 96 MTP is then replicated into two wells of a 384 MTP plate for each compound and for each concentration to be tested. The 384 MTP compound plate is used as source plate in a “mother to child” process with a CyBi®-Well dispenser in which 1 μL of compound is moved into a destination plate pre-filled with 24 μL of reaction buffer, obtaining 2× concentrated compound solution.
Genedata Screener® 17.0 was used for data analysis. In the implemented workflow, the following calculations were conducted: • Calculate the Response Value (KRV) from the respective original data as follow:
HTRF Assay: Ratio=665 nm_FRET/620 nm_Ab*10000 • Calculate the % Inhibition of the compound (Inhibitory effect). KRV was normalized versus Neutral Controls and Inhibitor Controls (JNJ7706621) to obtain Activity % according to the following formula:
Activity %=−100*(x−<Neutral Control>)/(<Inhibitor Control>−<Neutral Control>) […]

| SMILES | IC50 |
| --- | --- |
| CS(=O)(=O)N1CCC(Nc2ncc3ccc(=O)n(Cc4ccc(S(=O)(=O)n5cnc(C6CC6)n5)cc4)c3n2)CC1 [Compound 243] | < 10 µM |
| O=C(Cn1c(=O)ccc2cnc(NCC3CCCCC3)nc21)Nc1ccc(S(=O)(=O)n2cnc(C3CC3)n2)cc1 [Compound 282] | > 200 µM |
| CS(=O)(=O)N1CCC(Nc2ncc3cc(C(F)F)c(=O)n(CC(=O)Nc4ccc(S(=O)(=O)n5cnc(C6CC6)n5)cc4)c3n2)CC1 [Compound 234] | < 10 µM |
| O=c1ccc2cnc(NC3CCOC3)nc2n1CCCS(=O)(=O)n1cnc(C2CC2)n1 (stereo not drawn) [Compound 267] | 10 to 100 µM |
| CS(=O)(=O)N1CCC(Nc2ncc3ccc(=O)n(CC(=O)Nc4ccc(S(=O)(=O)n5cnc(C6CC6)n5)cc4)c3n2)CC1 [Compound 232] | < 10 µM |
| CS(=O)(=O)N1CCC(Nc2ncc3ccc(=O)n(CCCS(=O)(=O)n4cnc(-c5ccccc5)n4)c3n2)CC1 [Compound 246] | < 10 µM |
| Cc1cc(S(=O)(=O)n2cncn2)ccc1NC(=O)Cn1c(=O)ccc2cnc(NC3CCN(S(C)(=O)=O)CC3)nc21 [Compound 250] | < 10 µM |
| CS(=O)(=O)N1CCC(Nc2ncc3ccc(=O)n(CCOCCCS(=O)(=O)n4cncn4)c3n2)CC1 [Compound 231] | < 10 µM |
| CS(=O)(=O)N1CCC(Nc2ncc3cc(C(F)F)c(=O)n(CCOC(=O)c4ccc(S(=O)(=O)n5cnc(C6CC6)n5)cc4)c3n2)CC1 [Compound 227] | < 10 µM |
| CS(=O)(=O)N1CCC(Nc2ncc3ccc(=O)n(CC(=O)NCc4ccc(S(=O)(=O)n5cncn5)cc4)c3n2)CC1 [Compound 236] | < 10 µM |
| COCCc1cc2cnc(NC3CCN(S(C)(=O)=O)CC3)nc2n(CCCS(=O)(=O)n2cnc(C3CC3)n2)c1=O [Compound 288] | < 10 µM |
| Cc1cc(NC(=O)Cn2c(=O)ccc3cnc(NC4CCN(S(C)(=O)=O)CC4)nc32)ccc1S(=O)(=O)n1cnc(C2CC2)n1 [Compound 239] | < 10 µM |
| O=C(Cn1c(=O)ccc2cnc(NC3CCOCC3)nc21)Nc1ccc(S(=O)(=O)n2cnc(C3CC3)n2)cc1 [Compound 279] | < 10 µM |
| CS(=O)(=O)N1CCC(Nc2ncc3ccc(=O)n(CC(=O)NCc4ccc(S(=O)(=O)n5cnc(C6CC6)n5)cc4)c3n2)CC1 [Compound 235] | < 10 µM |
| CC(C)CNc1ncc2ccc(=O)n(CC(=O)Nc3ccc(S(=O)(=O)n4cnc(C5CC5)n4)cc3)c2n1 [Compound 292] | > 200 µM |
| O=c1ccc2cnc(NCC3CC3)nc2n1CCCS(=O)(=O)n1cnc(C2CC2)n1 [Compound 266] | 10 to 100 µM |
| CS(=O)(=O)N1CCC(Nc2ncc3ccc(=O)n(CC(=O)Nc4ccc(S(=O)(=O)n5cnc(-c6ccccc6)n5)cc4)c3n2)CC1 [Compound 229] | < 10 µM |
| CC(C)c1ncn(S(=O)(=O)c2ccc(NC(=O)Cn3c(=O)ccc4cnc(NC5CCN(S(C)(=O)=O)CC5)nc43)cc2)n1 [Compound 255] | < 10 µM |
| Cc1cc(NC(=O)Cn2c(=O)ccc3cnc(NC4CCN(S(C)(=O)=O)CC4)nc32)ccc1S(=O)(=O)n1cncn1 [Compound 237] | < 10 µM |
| CS(=O)(=O)N1CCC(Nc2ncc3ccc(=O)n(CCS(=O)(=O)n4cnc(-c5ccccc5)n4)c3n2)CC1 [Compound 274] | < 10 µM |
| CCOCc1cc2cnc(NC3CCN(S(C)(=O)=O)CC3)nc2n(CCCS(=O)(=O)n2cncn2)c1=O [Compound 265] | 10 to 100 µM |
| CC(C(=O)Nc1ccc(S(=O)(=O)n2cnc(C3CC3)n2)cc1)n1c(=O)ccc2cnc(NC3CCN(S(C)(=O)=O)CC3)nc21 (stereo not drawn) [Compound 254] | < 10 µM |
| CC(C(=O)Nc1ccc(S(=O)(=O)n2cncn2)cc1)n1c(=O)ccc2cnc(NC3CCN(S(C)(=O)=O)CC3)nc21 (stereo not drawn) [Compound 294] | < 10 µM |
| O=c1ccc2cnc(NCC3CCCCC3)nc2n1CCCS(=O)(=O)n1cnc(C2CC2)n1 [Compound 268] | > 200 µM |

| SMILES | IC50 |
| --- | --- |
| CS(=O)(=O)N1CCC(Nc2ncc3cc(CCO)c(=O)n(CCCS(=O)(=O)n4cnc(C5CC5)n4)c3n2)CC1 [Compound 276] | < 10 µM |
| CS(=O)(=O)N1CCC(Nc2ncc3ccc(=O)n(CC(=O)Nc4ccc(S(=O)(=O)n5cnc(CO)n5)cc4)c3n2)CC1 [Compound 259] | < 10 µM |
| CS(=O)(=O)N1CCC(Nc2ncc3ccc(=O)n(Cc4ccc(S(=O)(=O)n5cnc(-c6ccccc6)n5)cc4)c3n2)CC1 [Compound 242] | < 10 µM |
| CNc1ncc2ccc(=O)n(CC(=O)Nc3ccc(S(=O)(=O)n4cnc(C5CC5)n4)cc3)c2n1 [Compound 248] | < 10 µM |
| O=c1ccc2cnc(NC3CC(F)(F)C3)nc2n1CCCS(=O)(=O)n1cnc(C2CC2)n1 [Compound 263] | < 10 µM |
| CS(=O)(=O)N1CCC(Nc2ncc3ccc(=O)n(CC(=O)Nc4ccc(S(=O)(=O)n5cnc(C6CCC6)n5)cc4)c3n2)CC1 [Compound 258] | > 200 µM |
| CS(=O)(=O)N1CCC(Nc2ncc3cc(Cl)c(=O)n(CCCS(=O)(=O)n4cnc(C5CC5)n4)c3n2)CC1 [Compound 286] | < 10 µM |
| O=c1ccc2cnc(NC3CC3)nc2n1CCCS(=O)(=O)n1cnc(C2CC2)n1 [Compound 271] | < 10 µM |
| CNc1ncc2ccc(=O)n(CC(=O)Nc3ccc(S(=O)(=O)n4cncn4)cc3)c2n1 [Compound 247] | < 10 µM |
| Cc1cc(S(=O)(=O)n2cnc(-c3ccccc3)n2)ccc1NC(=O)Cn1c(=O)ccc2cnc(NC3CCN(S(C)(=O)=O)CC3)nc21 [Compound 252] | < 10 µM |
| CCOCc1cc2cnc(NC3CCN(S(C)(=O)=O)CC3)nc2n(CCCS(=O)(=O)n2cnc(C3CC3)n2)c1=O [Compound 261] | 10 to 100 µM |
| CS(=O)(=O)N1CCC(Nc2ncc3cc(CO)c(=O)n(CCCS(=O)(=O)n4cncn4)c3n2)CC1 [Compound 296] | < 10 µM |
| CCOC(=O)Cc1ncn(S(=O)(=O)c2ccc(NC(=O)Cn3c(=O)ccc4cnc(NC5CCN(S(C)(=O)=O)CC5)nc43)cc2)n1 [Compound 260] | < 10 µM |
| CS(=O)(=O)N1CCC(Nc2ncc3ccc(=O)n(CCOCCCS(=O)(=O)n4cnc(-c5ccccc5)n4)c3n2)CC1 [Compound 230] | 10 to 100 µM |
| O=C(Cn1c(=O)ccc2cnc(NC3CCOC3)nc21)Nc1ccc(S(=O)(=O)n2cnc(C3CC3)n2)cc1 (stereo not drawn) [Compound 275] | < 10 µM |
| O=C(Cn1c(=O)ccc2cnc(NCC3CC3)nc21)Nc1ccc(S(=O)(=O)n2cnc(C3CC3)n2)cc1 [Compound 278] | > 200 µM |
| CS(=O)(=O)N1CCC(Nc2ncc3cc(CO)c(=O)n(CCCS(=O)(=O)n4cnc(C5CC5)n4)c3n2)CC1 [Compound 300] | < 10 µM |
| CS(=O)(=O)N1CCC(Nc2ncc3cc(CCO)c(=O)n(CCCS(=O)(=O)n4cncn4)c3n2)CC1 [Compound 297] | < 10 µM |
| CS(=O)(=O)N1CCC(Nc2ncc3cc(C(F)F)c(=O)n(CCOC(=O)c4ccc(S(=O)(=O)n5cncn5)cc4)c3n2)CC1 [Compound 226] | < 10 µM |
| CS(=O)(=O)N1CCC(Nc2ncc3cc(CO)c(=O)n(CCCS(=O)(=O)n4cnc(-c5ccccc5)n4)c3n2)CC1 [Compound 290] | < 10 µM |
| CC(C)N1CCC(Nc2ncc3ccc(=O)n(CCCS(=O)(=O)n4cnc(C5CC5)n4)c3n2)CC1 [Compound 277] | > 200 µM |
| CS(=O)(=O)N1CCC(Nc2ncc3ccc(=O)n(CCS(=O)(=O)n4cnc(C5CC5)n4)c3n2)CC1 [Compound 264] | < 10 µM |
| CC(C)CNc1ncc2ccc(=O)n(CCCS(=O)(=O)n3cnc(C4CC4)n3)c2n1 [Compound 269] | < 10 µM |
| CS(=O)(=O)N1CCC(Nc2ncc3ccc(=O)n(CC(=O)Nc4ccc(S(=O)(=O)n5cnc(C6CCCC6)n5)cc4)c3n2)CC1 [Compound 273] | > 200 µM |
